Laboratory results: US8461348B2, “Heterocyclic derivative and use thereof” (Takeda Pharmaceutical Company Limited, priority 2008, dated 2013)

Legend:
Purified sGC = molecular target: T1, Purified sGC (Homo sapiens, UniProt Q02153); test: Measurement of sGC activation in vitro (cGMP production by purified sGC); format: biochemical; settings: 20 min; test compound diluted to 30 μM, 10 μL/well plus equal volumes of sGC and GTP; 20 min at room temperature; cGMP without compound (1% DMSO) = 100%; read-out: cGMP amount (%) in experiment system
T1 sequence (Q02153 1-619): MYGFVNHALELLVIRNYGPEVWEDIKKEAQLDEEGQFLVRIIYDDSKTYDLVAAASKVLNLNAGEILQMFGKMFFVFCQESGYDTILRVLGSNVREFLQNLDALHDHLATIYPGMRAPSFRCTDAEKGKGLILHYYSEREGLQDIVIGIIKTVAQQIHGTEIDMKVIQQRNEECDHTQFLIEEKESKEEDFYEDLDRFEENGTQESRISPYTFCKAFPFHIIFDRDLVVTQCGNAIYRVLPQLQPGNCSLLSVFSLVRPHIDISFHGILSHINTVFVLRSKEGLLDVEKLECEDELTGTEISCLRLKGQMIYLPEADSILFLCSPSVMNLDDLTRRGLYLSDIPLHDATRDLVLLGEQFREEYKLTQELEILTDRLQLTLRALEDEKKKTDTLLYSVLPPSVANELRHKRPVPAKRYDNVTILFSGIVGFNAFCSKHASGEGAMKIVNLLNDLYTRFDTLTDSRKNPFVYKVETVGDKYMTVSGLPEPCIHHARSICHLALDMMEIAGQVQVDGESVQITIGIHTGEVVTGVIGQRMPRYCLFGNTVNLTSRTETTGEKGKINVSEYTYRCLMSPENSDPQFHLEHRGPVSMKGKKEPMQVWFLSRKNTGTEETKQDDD
T1 sequence (Q02108 1-690 partner): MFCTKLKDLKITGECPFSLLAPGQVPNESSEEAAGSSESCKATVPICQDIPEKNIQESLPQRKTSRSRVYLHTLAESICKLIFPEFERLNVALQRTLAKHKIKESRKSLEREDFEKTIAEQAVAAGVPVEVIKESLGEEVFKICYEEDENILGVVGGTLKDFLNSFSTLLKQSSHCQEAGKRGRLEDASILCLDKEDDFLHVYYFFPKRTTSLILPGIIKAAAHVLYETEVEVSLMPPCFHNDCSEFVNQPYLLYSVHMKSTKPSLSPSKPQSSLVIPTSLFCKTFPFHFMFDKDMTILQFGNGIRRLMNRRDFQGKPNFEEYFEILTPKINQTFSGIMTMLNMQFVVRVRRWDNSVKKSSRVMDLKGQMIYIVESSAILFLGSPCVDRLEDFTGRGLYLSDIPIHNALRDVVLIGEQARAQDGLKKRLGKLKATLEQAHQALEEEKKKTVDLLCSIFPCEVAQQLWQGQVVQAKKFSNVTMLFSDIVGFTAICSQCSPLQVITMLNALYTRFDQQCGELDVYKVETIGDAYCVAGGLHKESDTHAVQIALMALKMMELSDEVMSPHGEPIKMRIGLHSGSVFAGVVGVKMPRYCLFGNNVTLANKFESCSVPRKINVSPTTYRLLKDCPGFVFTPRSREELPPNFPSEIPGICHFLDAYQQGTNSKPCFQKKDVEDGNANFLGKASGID
Procedure: To evaluate sGC activation of each compound, the following in vitro tests were performed.
A test compound was diluted with a reaction buffer (50 mM HEPES, 5 mM MgCl2, 2 mM DTT, 0.5 mM IBMX (isobutylmethylxanthine), 0.01% BSA) to 30 μM (3% DMSO), and dispensed to a 384 well plate (manufactured by REMP) at 10 μL/well. Purified sGC was diluted with the reaction buffer to 240 ng/mL and added to the plate at 10 μL/well. Then, 120 μM GTP prepared with the reaction buffer was added to the reaction plate at 10 μL/well to initiate an enzyme reaction. After stirring at room temperature for 20 min to allow reaction, 125 mM Na2CO3 was added at 15 μL/well to quench the reaction. Thereafter, 125 mM Zn Acetate (zinc acetate) was added at 15 μL/well to allow precipitation of unreacted GTP. Then, the amount of the resulting cGMP contained in the supernatant was quantified using a CatchPoint cGMP assay kit (molecular devices). The method followed the protocol attached to the assay kit. For detection, Super Signal ELISA Femto (Thermo) was used, and the amount of luminescence was measured with ARVO (Perkinelmer). The sGC activity with addition of the compound was calculated using the amount of cGMP produced without addition of the compound (in the presence of 1% DMSO) as 100%.

male SHR = test: Measurement of hypotensive action in vivo in SHR; design: species or system rat; settings: single oral administration, 10 mg/kg, 5 hr after administration
Procedure: Animal used was male SHR (32- to 40-week-old, SHR/Izm, Japan SLC, Inc.). Two days before drug administration, a cannula (SP10+SP45, Natsume Seisakusho Co., Ltd.) filled with heparin physiological saline (200 U/mL, Ajinomoto Pharma Co., Ltd.) was inserted from the femoral artery under anesthesia with pentobarbital Na (50 mg/kg, i.p., Kyoritsu Seiyaku Corporation) and dwelled. The other end of the cannula was subcutaneously passed and exposed on the back of the neck where it was fixed. After a recovery period, the artery dwelling cannula was connected to a pressure transducer (DTX Plus DT-XXAD, Japan Becton Dickinson) and output on a pen recorder (linear recorder WR3320-4µL, Graphtec Corporation) via a polygraph (AP-641G, Nihon Kohden Co.), and the blood pressure waveform was recorded. The heart rate was calculated from the blood pressure waveform. After stable blood pressure was obtained, a solvent or a drug was orally administered once, and average blood pressure and average heart rate were measured over time. The blood pressure was measured under fasting, and the rats were reared under free ingestion of feed and water except the blood pressure measurement day. The drug was suspended in 0.5% methylcellulose aqueous solution. The administration dose was 2 mL/kg.

Q: Which activity at 10 µM (Purified sGC) does the source give for `Cc1sc(-c2cccc(C(F)(F)F)c2F)nc1Cn1cc(C(=O)O)cn1` [Example 80, 1-({2-[2-fluoro-3-(trifluoromethyl)phenyl]-5-methyl-1,3-thiazol-4-yl}methyl)-1H-pyrazole-4-carboxylic acid] here?
A: > 1000%

Q: What about the “hypotension after 5 hr from the administration” value (male SHR) of the same compound?
A: 14.7 mmHg
